Legend:
[1] = biological target: Beta-3 adrenergic receptor (Homo sapiens, UniProt P13945); test: DRUGMATRIX: Adrenergic beta3 radioligand binding (ligand: [125I] Cyanopindolol); format: cell membranes, HEK293, Membrane; details: hek293; Not Active = under 50% inhibition at 10 µM
[2] = biological target: 5-hydroxytryptamine receptor 2B (Homo sapiens, UniProt P41595); format: cell membranes, CHO-K1, Membrane; details: for Ki: read-out: Ki; as to all read-outs here: in other assays of this panel Not Active means under 50% inhibition at 10 µM
Sequence of 5-hydroxytryptamine receptor 2B (P41595 whole entry): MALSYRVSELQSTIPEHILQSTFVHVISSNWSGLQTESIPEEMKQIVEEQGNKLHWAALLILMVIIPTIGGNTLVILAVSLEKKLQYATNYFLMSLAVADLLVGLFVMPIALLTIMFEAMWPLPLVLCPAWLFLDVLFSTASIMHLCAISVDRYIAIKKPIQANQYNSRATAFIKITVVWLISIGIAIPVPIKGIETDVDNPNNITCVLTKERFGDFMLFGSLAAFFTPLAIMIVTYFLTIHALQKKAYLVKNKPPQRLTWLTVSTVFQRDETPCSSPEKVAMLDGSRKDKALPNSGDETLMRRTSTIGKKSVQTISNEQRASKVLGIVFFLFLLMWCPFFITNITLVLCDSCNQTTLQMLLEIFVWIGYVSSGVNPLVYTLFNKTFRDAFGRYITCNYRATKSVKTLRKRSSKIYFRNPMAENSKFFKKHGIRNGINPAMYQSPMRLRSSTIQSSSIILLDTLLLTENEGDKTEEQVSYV

Vasopressin V1a receptor = Vasopressin V1a receptor (Homo sapiens, UniProt P37288); format: cell membranes, Membrane; details: hek293; also: in other assays of this panel Not Active means under 50% inhibition at 10 µM
Sequence of Vasopressin V1a receptor (P37288 whole entry): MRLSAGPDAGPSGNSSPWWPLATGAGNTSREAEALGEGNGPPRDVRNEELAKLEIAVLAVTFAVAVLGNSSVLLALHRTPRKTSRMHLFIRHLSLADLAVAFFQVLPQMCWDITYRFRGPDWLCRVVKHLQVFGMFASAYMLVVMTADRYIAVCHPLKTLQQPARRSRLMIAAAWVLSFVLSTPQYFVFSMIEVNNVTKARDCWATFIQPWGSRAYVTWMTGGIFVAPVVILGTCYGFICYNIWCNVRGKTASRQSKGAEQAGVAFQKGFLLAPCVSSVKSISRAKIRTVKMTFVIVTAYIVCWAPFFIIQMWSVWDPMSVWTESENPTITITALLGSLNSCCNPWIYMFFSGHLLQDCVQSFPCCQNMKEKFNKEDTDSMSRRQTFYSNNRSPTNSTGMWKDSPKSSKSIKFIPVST

[3] = biological target: Mitogen-activated protein kinase 3 (Homo sapiens, UniProt P27361); test: DRUGMATRIX: Protein Serine/Threonine Kinase, ERK1 enzyme inhibition (substrate: Myelin Basic Protein); set-up: species or system Escherichia coli; details: Not Active = under 50% inhibition at 10 µM
Sequence of Mitogen-activated protein kinase 3 (P27361 whole entry): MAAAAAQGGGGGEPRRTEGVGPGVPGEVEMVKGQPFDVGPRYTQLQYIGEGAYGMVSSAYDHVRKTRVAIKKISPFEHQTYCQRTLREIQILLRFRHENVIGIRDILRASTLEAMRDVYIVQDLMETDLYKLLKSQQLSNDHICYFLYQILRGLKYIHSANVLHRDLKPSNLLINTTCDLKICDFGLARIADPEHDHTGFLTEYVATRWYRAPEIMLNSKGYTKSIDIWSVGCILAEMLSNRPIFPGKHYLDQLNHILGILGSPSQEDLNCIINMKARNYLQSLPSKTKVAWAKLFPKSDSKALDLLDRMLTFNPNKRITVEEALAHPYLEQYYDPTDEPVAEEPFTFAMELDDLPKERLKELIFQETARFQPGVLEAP

[4] = biological target: T1, Alpha-1B adrenergic receptor (Rattus norvegicus, UniProt P15823); test: DRUGMATRIX: Alpha-1B adrenergic receptor radioligand binding (ligand: prazosin); format: cell membranes, Wistar, Liver, Membrane; details: Not Active = under 50% inhibition at 10 µM
T1 sequence (P15823 whole entry): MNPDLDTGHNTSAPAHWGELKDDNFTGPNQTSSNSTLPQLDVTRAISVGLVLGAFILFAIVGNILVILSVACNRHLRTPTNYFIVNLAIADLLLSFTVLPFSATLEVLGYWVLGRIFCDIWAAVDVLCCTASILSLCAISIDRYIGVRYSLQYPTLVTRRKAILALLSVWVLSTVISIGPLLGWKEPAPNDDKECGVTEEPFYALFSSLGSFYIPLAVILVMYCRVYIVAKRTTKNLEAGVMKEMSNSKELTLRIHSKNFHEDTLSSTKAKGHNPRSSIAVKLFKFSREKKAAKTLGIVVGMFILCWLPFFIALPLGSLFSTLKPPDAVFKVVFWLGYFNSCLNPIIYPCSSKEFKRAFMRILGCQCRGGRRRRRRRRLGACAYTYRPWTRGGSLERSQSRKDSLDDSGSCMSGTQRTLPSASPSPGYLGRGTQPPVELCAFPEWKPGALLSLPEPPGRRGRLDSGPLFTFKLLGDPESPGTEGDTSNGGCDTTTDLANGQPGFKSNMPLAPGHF

[5] = DRUGMATRIX: Glutamate, AMPA radioligand binding (ligand: [3H] AMPA); format: cell membranes, Rattus norvegicus, Wistar, Cerebral cortex, Membrane; details: Not Active = under 50% inhibition at 10 µM
[6] = biological target: Receptor tyrosine-protein kinase erbB-2 (Homo sapiens, UniProt P04626); test: biochemical; format: cell-based, Insect cells; details: insect cells;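 also: inhibition of HER2 kinase enzyme activity, measured with Poly(Glu:Tyr) as the phosphorylation substrate; in other assays of this panel Not Active means under 50% inhibition at 10 µM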
Sequence of Receptor tyrosine-protein kinase erbB-2 (P04626 whole entry): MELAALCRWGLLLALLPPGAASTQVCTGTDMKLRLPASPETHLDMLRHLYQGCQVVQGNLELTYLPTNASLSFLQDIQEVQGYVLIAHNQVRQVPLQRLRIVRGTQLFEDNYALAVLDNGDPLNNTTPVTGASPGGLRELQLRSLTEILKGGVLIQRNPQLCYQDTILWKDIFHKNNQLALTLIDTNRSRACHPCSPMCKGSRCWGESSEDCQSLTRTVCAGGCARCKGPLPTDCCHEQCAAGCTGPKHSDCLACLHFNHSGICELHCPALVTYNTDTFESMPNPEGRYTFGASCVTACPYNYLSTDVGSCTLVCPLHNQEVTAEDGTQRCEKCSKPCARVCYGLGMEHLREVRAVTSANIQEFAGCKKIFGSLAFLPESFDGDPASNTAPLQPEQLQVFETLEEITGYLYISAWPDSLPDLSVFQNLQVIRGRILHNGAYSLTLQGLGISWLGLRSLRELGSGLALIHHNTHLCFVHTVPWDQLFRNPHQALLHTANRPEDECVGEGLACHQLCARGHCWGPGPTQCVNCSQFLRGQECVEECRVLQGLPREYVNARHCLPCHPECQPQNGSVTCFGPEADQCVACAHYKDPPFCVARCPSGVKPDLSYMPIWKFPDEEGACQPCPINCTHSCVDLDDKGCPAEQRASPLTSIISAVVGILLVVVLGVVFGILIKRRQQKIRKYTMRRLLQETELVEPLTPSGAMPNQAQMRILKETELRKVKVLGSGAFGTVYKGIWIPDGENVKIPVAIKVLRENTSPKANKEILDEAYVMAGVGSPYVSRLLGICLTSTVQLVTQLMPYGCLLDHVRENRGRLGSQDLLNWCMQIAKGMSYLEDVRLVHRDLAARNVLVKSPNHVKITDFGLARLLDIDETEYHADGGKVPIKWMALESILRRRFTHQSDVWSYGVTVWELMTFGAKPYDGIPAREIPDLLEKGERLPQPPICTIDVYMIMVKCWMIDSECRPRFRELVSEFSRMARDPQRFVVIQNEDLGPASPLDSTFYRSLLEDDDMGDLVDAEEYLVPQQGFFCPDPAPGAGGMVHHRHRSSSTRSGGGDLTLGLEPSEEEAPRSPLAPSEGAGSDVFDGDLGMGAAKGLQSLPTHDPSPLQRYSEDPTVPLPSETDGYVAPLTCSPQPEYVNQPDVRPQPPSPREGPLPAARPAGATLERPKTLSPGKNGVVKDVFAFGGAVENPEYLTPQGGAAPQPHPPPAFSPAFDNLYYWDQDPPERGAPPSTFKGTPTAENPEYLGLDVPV

[7] = biological target: T2, Neuropeptide Y receptor type 2 (Homo sapiens, UniProt P49146); format: cell membranes, Membrane; details: kan-ts; also: in other assays of this panel Not Active means under 50% inhibition at 10 µM
T2 sequence (P49146 whole entry): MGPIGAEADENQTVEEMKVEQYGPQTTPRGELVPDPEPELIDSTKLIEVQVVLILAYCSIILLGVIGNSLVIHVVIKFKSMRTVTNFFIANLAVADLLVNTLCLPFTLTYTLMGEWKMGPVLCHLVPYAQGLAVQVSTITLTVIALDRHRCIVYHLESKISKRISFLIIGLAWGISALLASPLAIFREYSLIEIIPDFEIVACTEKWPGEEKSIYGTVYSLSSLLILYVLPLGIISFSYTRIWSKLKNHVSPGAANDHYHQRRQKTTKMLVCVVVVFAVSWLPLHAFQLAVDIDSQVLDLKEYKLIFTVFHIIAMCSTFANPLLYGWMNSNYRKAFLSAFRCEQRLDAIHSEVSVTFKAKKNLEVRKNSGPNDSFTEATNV

[8] = biological target: T3, Alpha-1D adrenergic receptor (Homo sapiens, UniProt P25100); format: cell membranes, HEK293, Membrane; also: in other assays of this panel Not Active means under 50% inhibition at 10 µM
T3 sequence (P25100 whole entry): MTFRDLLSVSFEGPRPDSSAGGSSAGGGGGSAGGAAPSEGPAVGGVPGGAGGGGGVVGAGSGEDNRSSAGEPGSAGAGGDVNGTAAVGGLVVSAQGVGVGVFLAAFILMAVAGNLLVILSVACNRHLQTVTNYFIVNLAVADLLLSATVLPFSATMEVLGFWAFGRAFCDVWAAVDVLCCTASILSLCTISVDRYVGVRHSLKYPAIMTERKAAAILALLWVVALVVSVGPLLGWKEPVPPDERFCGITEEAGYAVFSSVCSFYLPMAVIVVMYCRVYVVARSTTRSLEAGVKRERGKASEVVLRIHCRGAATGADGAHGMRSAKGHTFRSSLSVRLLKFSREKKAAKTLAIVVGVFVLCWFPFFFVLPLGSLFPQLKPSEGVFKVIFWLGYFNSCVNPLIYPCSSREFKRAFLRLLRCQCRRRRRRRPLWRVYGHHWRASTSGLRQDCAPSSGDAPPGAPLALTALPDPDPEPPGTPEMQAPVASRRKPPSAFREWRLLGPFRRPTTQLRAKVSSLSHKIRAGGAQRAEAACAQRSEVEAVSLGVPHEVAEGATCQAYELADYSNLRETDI

[9] = DRUGMATRIX: GABAA, Chloride Channel, TBOB radioligand binding (ligand: [3H] TBOB); format: cell membranes, Rattus norvegicus, Wistar, Cerebral cortex, Membrane; details: Not Active = under 50% inhibition at 10 µM
Glucocorticoid receptor = biological target: T4, Glucocorticoid receptor (Homo sapiens, UniProt P04150); details: hela s3; also: in other assays of this panel Not Active means under 50% inhibition at 10 µM
T4 sequence (P04150 whole entry): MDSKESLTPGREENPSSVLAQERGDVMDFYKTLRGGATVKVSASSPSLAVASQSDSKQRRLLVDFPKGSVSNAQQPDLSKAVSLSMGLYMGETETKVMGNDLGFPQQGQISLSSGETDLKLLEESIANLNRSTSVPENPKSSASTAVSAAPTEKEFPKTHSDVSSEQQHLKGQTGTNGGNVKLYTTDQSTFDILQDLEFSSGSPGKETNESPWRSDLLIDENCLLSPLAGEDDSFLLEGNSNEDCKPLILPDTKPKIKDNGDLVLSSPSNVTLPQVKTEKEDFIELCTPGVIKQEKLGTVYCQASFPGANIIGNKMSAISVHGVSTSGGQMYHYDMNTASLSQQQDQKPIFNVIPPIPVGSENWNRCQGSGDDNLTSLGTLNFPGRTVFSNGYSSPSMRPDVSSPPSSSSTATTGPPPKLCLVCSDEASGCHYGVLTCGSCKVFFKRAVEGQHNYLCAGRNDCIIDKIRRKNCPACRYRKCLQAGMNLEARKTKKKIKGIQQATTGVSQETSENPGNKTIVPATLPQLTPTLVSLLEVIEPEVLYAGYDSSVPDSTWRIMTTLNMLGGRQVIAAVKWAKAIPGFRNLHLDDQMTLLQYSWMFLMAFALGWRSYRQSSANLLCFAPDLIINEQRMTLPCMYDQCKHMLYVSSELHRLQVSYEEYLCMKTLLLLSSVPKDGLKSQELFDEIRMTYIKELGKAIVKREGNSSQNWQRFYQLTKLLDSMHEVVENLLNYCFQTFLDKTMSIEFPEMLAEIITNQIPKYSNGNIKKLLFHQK

[10] = biological target: Tyrosine-protein kinase Lck (Homo sapiens, UniProt P06239); test: DRUGMATRIX: Protein Tyrosine Kinase, LCK enzyme inhibition (substrate: Poly(Glu:Tyr)); format: cell-based, Insect cells; details: insect cells; Not Active = under 50% inhibition at 10 µM
Sequence of Tyrosine-protein kinase Lck (P06239 whole entry): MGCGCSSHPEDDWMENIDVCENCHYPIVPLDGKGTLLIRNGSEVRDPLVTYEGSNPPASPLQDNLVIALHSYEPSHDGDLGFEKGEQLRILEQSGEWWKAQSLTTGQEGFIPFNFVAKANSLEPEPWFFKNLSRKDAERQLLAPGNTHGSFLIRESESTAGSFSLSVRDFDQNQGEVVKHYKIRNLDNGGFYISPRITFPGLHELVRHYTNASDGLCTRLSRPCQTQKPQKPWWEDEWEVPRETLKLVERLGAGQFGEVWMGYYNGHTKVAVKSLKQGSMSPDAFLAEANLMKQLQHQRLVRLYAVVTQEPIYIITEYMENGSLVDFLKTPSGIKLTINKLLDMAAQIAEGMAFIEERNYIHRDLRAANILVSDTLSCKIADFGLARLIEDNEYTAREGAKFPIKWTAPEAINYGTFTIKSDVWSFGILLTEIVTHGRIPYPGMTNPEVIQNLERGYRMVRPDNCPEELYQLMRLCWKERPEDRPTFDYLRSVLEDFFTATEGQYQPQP

Sequence of Beta-3 adrenergic receptor (P13945 whole entry): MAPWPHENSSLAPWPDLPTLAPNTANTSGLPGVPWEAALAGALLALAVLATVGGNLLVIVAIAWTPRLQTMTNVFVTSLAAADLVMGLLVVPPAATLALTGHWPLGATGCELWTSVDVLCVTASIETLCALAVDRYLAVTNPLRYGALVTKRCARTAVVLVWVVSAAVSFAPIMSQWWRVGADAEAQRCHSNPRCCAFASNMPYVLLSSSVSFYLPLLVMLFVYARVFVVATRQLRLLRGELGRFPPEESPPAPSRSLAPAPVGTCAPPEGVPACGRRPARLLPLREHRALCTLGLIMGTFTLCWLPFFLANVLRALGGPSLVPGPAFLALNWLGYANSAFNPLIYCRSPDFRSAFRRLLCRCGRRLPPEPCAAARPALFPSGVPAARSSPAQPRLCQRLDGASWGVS

## O=c1cc(-c2ccccc2)oc2c1ccc1ccccc12 [ALPHA-NAPHTHOFLAVONE]
[1]
  IC50: Not Active
[2]; cho-k1
  IC50: Not Active
Vasopressin V1a receptor
  IC50: Not Active
[3]
  IC50: Not Active
[4]
  IC50: Not Active
[5]
  IC50: Not Active
  Ki: Not Active
[6]
  IC50: Not Active
[7]
  IC50: Not Active
[8]; hek293
  IC50: Not Active
[9]
  IC50: Not Active
  Ki: Not Active
Glucocorticoid receptor
  IC50: Not Active
[10]
  IC50: Not Active

## COc1c(N2CCNC(C)C2)c(F)cc2c(=O)c(C(=O)O)cn(C3CC3)c12 (centres undefined) [GATIFLOXACIN]
[1]
  IC50: Not Active
[2]; cho-k1
  IC50: Not Active
Vasopressin V1a receptor
  IC50: Not Active
[3]
  IC50: Not Active
[4]
  IC50: Not Active
[5]
  IC50: Not Active
  Ki: Not Active
[6]
  IC50: Not Active
[7]
  IC50: Not Active
[8]; hek293
  IC50: Not Active
[9]
  IC50: Not Active
  Ki: Not Active
Glucocorticoid receptor
  IC50: Not Active
[10]
  IC50: Not Active

## CC1=Nc2ccc(Cl)cc2S(=O)(=O)N1 [DIAZOXIDE]
[1]
  IC50: Not Active
[2]; cho-k1
  IC50: Not Active
Vasopressin V1a receptor
  IC50: Not Active
[3]
  IC50: Not Active
[4]
  IC50: Not Active
[5]
  IC50: Not Active
  Ki: Not Active
[6]
  IC50: Not Active
[7]
  IC50: Not Active
[8]; hek293
  IC50: Not Active
[9]
  IC50: Not Active
  Ki: Not Active
Glucocorticoid receptor
  IC50: Not Active
[10]
  IC50: Not Active

## COC(=O)[C@H](c1ccccc1Cl)N1CCc2sccc2C1 [CLOPIDOGREL]
[1]
  IC50: Not Active
[2]; cho-k1
  IC50: Not Active
Vasopressin V1a receptor
  IC50: Not Active
[3]
  IC50: Not Active
[4]
  IC50: Not Active
[5]
  IC50: Not Active
  Ki: Not Active
[6]
  IC50: Not Active
[7]
  IC50: Not Active
[8]; hek293
  IC50: Not Active
[9]
  IC50: Not Active
  Ki: Not Active
Glucocorticoid receptor
  IC50: Not Active
[10]
  IC50: Not Active

## CN(C)CCCC1(c2ccc(F)cc2)OCc2cc(C#N)ccc21 (centres undefined) [CITALOPRAM]
[1]
  IC50: Not Active
[2]; read-out: IC50
  IC50: 1840 nM
[2]
  Ki: 1170 nM
Vasopressin V1a receptor
  IC50: Not Active
[3]
  IC50: Not Active
[4]; read-out: IC50
  IC50: 3290 nM
[4]; read-out: Ki
  Ki: 1820 nM
[5]
  IC50: Not Active
  Ki: Not Active
[6]
  IC50: Not Active
[7]
  IC50: Not Active
[8]; read-out: IC50
  IC50: 3290 nM
[8]; read-out: Ki
  Ki: 1620 nM
[9]
  IC50: Not Active
  Ki: Not Active
Glucocorticoid receptor
  IC50: Not Active
[10]
  IC50: Not Active

## COc1ccc2c(c1)c(CC(=O)OCC(=O)O)c(C)n2C(=O)c1ccc(Cl)cc1 [ACEMETACIN]
[1]
  IC50: Not Active
[2]; cho-k1
  IC50: Not Active
Vasopressin V1a receptor
  IC50: Not Active
[3]
  IC50: Not Active
[4]
  IC50: Not Active
[5]
  IC50: Not Active
  Ki: Not Active
[6]
  IC50: Not Active
[7]
  IC50: Not Active
[8]; hek293
  IC50: Not Active
[9]
  IC50: Not Active
  Ki: Not Active
Glucocorticoid receptor
  IC50: Not Active
[10]
  IC50: Not Active

## CC(C)(S)[C@@H](N)C(=O)O [PENICILLAMINE]
[1]
  IC50: Not Active
[2]; cho-k1
  IC50: Not Active
Vasopressin V1a receptor
  IC50: Not Active
[3]
  IC50: Not Active
[4]
  IC50: Not Active
[5]
  IC50: Not Active
  Ki: Not Active
[6]
  IC50: Not Active
[7]
  IC50: Not Active
[8]; hek293
  IC50: Not Active
[9]
  IC50: Not Active
  Ki: Not Active
Glucocorticoid receptor
  IC50: Not Active
[10]
  IC50: Not Active

## COc1ccc(CN(CCN(C)C)c2ccccn2)cc1 [PYRILAMINE]
[1]
  IC50: Not Active
[2]; read-out: IC50
  IC50: 2790 nM
[2]
  Ki: 1770 nM
Vasopressin V1a receptor
  IC50: Not Active
[3]
  IC50: Not Active
[4]
  IC50: Not Active
[5]
  IC50: Not Active
  Ki: Not Active
[6]
  IC50: Not Active
[7]
  IC50: Not Active
[8]; hek293
  IC50: Not Active
[9]
  IC50: Not Active
  Ki: Not Active
Glucocorticoid receptor
  IC50: Not Active
[10]
  IC50: Not Active

## NS(=O)(=O)c1cc2c(cc1Cl)NCNS2(=O)=O [HYDROCHLOROTHIAZIDE]
[1]
  IC50: Not Active
[2]; cho-k1
  IC50: Not Active
Vasopressin V1a receptor
  IC50: Not Active
[3]
  IC50: Not Active
[4]
  IC50: Not Active
[5]
  IC50: Not Active
  Ki: Not Active
[6]
  IC50: Not Active
[7]
  IC50: Not Active
[8]; hek293
  IC50: Not Active
[9]
  IC50: Not Active
  Ki: Not Active
Glucocorticoid receptor
  IC50: Not Active
[10]
  IC50: Not Active

## CN1C(C(=O)Nc2ccccn2)=C(O)c2ccccc2S1(=O)=O [PIROXICAM]
[1]
  IC50: Not Active
[2]; cho-k1
  IC50: Not Active
Vasopressin V1a receptor
  IC50: Not Active
[3]
  IC50: Not Active
[4]
  IC50: Not Active
[5]
  IC50: Not Active
  Ki: Not Active
[6]
  IC50: Not Active
[7]
  IC50: Not Active
[8]; hek293
  IC50: Not Active
[9]
  IC50: Not Active
  Ki: Not Active
Glucocorticoid receptor
  IC50: Not Active
[10]
  IC50: Not Active

— ChEMBL document CHEMBL1909046, “DrugMatrix in vitro pharmacology data”
